Experimental data: PubChem BioAssay (NCI)
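Five compound concentrations were applied to cells in 96-well plates for 48 hours; endpoints were derived by simple linear interpolation of the resulting dose-response curve. Here, GI50 denotes the concentration required for 50% inhibition of growth. At the TGI there is no net growth.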

Assays:
Experiment in all cases: inhibition of tumour cell growth, NCI panel, 48 h
786-0 renal = tested on: 786-0 renal
A498 renal = tested on: A498 renal
A549 NSCLC = tested on: A549 NSCLC
ACHN renal = tested on: ACHN renal
BT-549 breast = tested on: BT-549 breast
CAKI-1 renal = tested on: CAKI-1 renal
CCRF-CEM leukemia = tested on: CCRF-CEM leukemia
COLO 205 colon = tested on: COLO 205 colon
DU-145 prostate = tested on: DU-145 prostate
HCC-2998 colon = tested on: HCC-2998 colon
HCT-116 colon = tested on: HCT-116 colon
HCT-15 colon = tested on: HCT-15 colon
HL-60(TB) leukemia = tested on: HL-60(TB) leukemia
HOP-62 NSCLC = tested on: HOP-62 NSCLC
HOP-92 NSCLC = tested on: HOP-92 NSCLC
HS 578T breast = tested on: HS 578T breast
HT29 colon = tested on: HT29 colon
IGROV1 ovarian = tested on: IGROV1 ovarian
K-562 leukemia = tested on: K-562 leukemia
KM12 colon = tested on: KM12 colon
LOX IMVI melanoma = tested on: LOX IMVI melanoma
M14 melanoma = tested on: M14 melanoma
MALME-3M melanoma = tested on: MALME-3M melanoma
MCF7 breast = tested on: MCF7 breast
MDA-MB-231 breast = tested on: MDA-MB-231 breast
MDA-MB-435 = tested on: MDA-MB-435
MOLT-4 leukemia = tested on: MOLT-4 leukemia
NCI-H226 lung = tested on: NCI-H226 lung
NCI-H23 lung = tested on: NCI-H23 lung
NCI-H460 lung = tested on: NCI-H460 lung
NCI-H522 lung = tested on: NCI-H522 lung
NCI/ADR-RES ovarian = tested on: NCI/ADR-RES ovarian
OVCAR-3 ovarian = tested on: OVCAR-3 ovarian
OVCAR-4 ovarian = tested on: OVCAR-4 ovarian
OVCAR-5 ovarian = tested on: OVCAR-5 ovarian
OVCAR-8 ovarian = tested on: OVCAR-8 ovarian
PC-3 prostate = tested on: PC-3 prostate
RPMI-8226 leukemia = tested on: RPMI-8226 leukemia
RXF 393 renal = tested on: RXF 393 renal
SF-268 CNS = tested on: SF-268 CNS
SF-295 CNS = tested on: SF-295 CNS
SF-539 CNS = tested on: SF-539 CNS
SK-MEL-2 melanoma = tested on: SK-MEL-2 melanoma
SK-MEL-28 melanoma = tested on: SK-MEL-28 melanoma
SK-MEL-5 melanoma = tested on: SK-MEL-5 melanoma
SK-OV-3 ovarian = tested on: SK-OV-3 ovarian
SN12C renal = tested on: SN12C renal
SNB-19 CNS = tested on: SNB-19 CNS
SNB-75 CNS = tested on: SNB-75 CNS
SR leukemia = tested on: SR leukemia
SW-620 colon = tested on: SW-620 colon
T-47D breast = tested on: T-47D breast
TK-10 renal = tested on: TK-10 renal
U251 CNS = tested on: U251 CNS
UACC-257 melanoma = tested on: UACC-257 melanoma
UACC-62 melanoma = tested on: UACC-62 melanoma
UO-31 renal = tested on: UO-31 renal

In the case of `O=C(C=P(c1ccccc1)(c1ccccc1)c1ccccc1)CCl`, the GI50 (786-0 renal) is reported as 1610 nM, the TGI (786-0 renal) is reported as 3560 nM and the GI50 (A498 renal) is reported as 1090 nM. For the same compound, the TGI (A498 renal) was 2460 nM, the GI50 (A549 NSCLC) was 2160 nM and the TGI (A549 NSCLC) was 8140 nM. For the same compound, the GI50 (ACHN renal) was 569 nM, the TGI (ACHN renal) was 1940 nM and the GI50 (BT-549 breast) was 1890 nM. For the same compound, the TGI (BT-549 breast) was 7140 nM, the GI50 (CAKI-1 renal) was 980 nM and the TGI (CAKI-1 renal) was 2810 nM. The GI50 (CCRF-CEM leukemia) was 826 nM, the TGI (CCRF-CEM leukemia) was 7410 nM and the GI50 (COLO 205 colon) was 1530 nM. It also gave a TGI (COLO 205 colon) of 3660 nM, a GI50 (DU-145 prostate) of 1130 nM and a TGI (DU-145 prostate) of 2380 nM. The GI50 (HCC-2998 colon) was 1840 nM, the TGI (HCC-2998 colon) was 3700 nM and the GI50 (HCT-116 colon) was 416 nM. For the same compound, the TGI (HCT-116 colon) was 1600 nM, the GI50 (HCT-15 colon) was 881 nM and the TGI (HCT-15 colon) was 4210 nM. It also gave a GI50 (HL-60(TB) leukemia) of 1310 nM, a TGI (HL-60(TB) leukemia) of 6120 nM and a GI50 (HOP-62 NSCLC) of 2620 nM. The TGI (HOP-62 NSCLC) was 7930 nM, the GI50 (HOP-92 NSCLC) was 142 nM and the TGI (HOP-92 NSCLC) was 693 nM. It also gave a GI50 (HS 578T breast) of 1530 nM, a TGI (HS 578T breast) of 11000 nM and a GI50 (HT29 colon) of 1130 nM. For the same compound, the TGI (HT29 colon) was 2800 nM, the GI50 (IGROV1 ovarian) was 1970 nM and the TGI (IGROV1 ovarian) was 5750 nM. For the same compound, the GI50 (K-562 leukemia) was 844 nM, the TGI (K-562 leukemia) was 9120 nM and the GI50 (KM12 colon) was 1940 nM. For the same compound, the TGI (KM12 colon) was 5090 nM, the GI50 (LOX IMVI melanoma) was 353 nM and the TGI (LOX IMVI melanoma) was 1040 nM. It also gave a GI50 (M14 melanoma) of 1360 nM, a TGI (M14 melanoma) of 3890 nM and a GI50 (MALME-3M melanoma) of 1320 nM. It also gave a TGI (MALME-3M melanoma) of 3080 nM, a GI50 (MCF7 breast) of 403 nM and a TGI (MCF7 breast) of 1930 nM. It also gave a GI50 (MDA-MB-231 breast) of 1220 nM, a TGI (MDA-MB-231 breast) of 3030 nM and a GI50 (MDA-MB-435) of 894 nM. For the same compound, the TGI (MDA-MB-435) was 2340 nM, the GI50 (MOLT-4 leukemia) was 1590 nM and the TGI (MOLT-4 leukemia) was 6850 nM. The GI50 (NCI-H226 lung) was 1310 nM, the TGI (NCI-H226 lung) was 2970 nM and the GI50 (NCI-H23 lung) was 811 nM. It also gave a TGI (NCI-H23 lung) of 4830 nM, a GI50 (NCI-H460 lung) of 1520 nM and a TGI (NCI-H460 lung) of 3600 nM. It also gave a GI50 (NCI-H522 lung) of 396 nM, a TGI (NCI-H522 lung) of 1640 nM and a GI50 (NCI/ADR-RES ovarian) of 1860 nM. The TGI (NCI/ADR-RES ovarian) was 10500 nM, the GI50 (OVCAR-3 ovarian) was 1330 nM and the TGI (OVCAR-3 ovarian) was 2680 nM. For the same compound, the GI50 (OVCAR-4 ovarian) was 488 nM, the TGI (OVCAR-4 ovarian) was 2200 nM and the GI50 (OVCAR-5 ovarian) was 1460 nM. The TGI (OVCAR-5 ovarian) was 3730 nM, the GI50 (OVCAR-8 ovarian) was 918 nM and the TGI (OVCAR-8 ovarian) was 3800 nM. For the same compound, the GI50 (PC-3 prostate) was 1540 nM, the TGI (PC-3 prostate) was 3340 nM and the GI50 (RPMI-8226 leukemia) was 965 nM. For the same compound, the TGI (RPMI-8226 leukemia) was 4450 nM, the GI50 (RXF 393 renal) was 1010 nM and the TGI (RXF 393 renal) was 2410 nM. For the same compound, the GI50 (SF-268 CNS) was 1750 nM, the TGI (SF-268 CNS) was 4010 nM and the GI50 (SF-295 CNS) was 2300 nM. The TGI (SF-295 CNS) was 7620 nM, the GI50 (SF-539 CNS) was 1280 nM and the TGI (SF-539 CNS) was 2980 nM. For the same compound, the GI50 (SK-MEL-2 melanoma) was 1790 nM, the TGI (SK-MEL-2 melanoma) was 3870 nM and the GI50 (SK-MEL-28 melanoma) was 1540 nM. The TGI (SK-MEL-28 melanoma) was 3550 nM, the GI50 (SK-MEL-5 melanoma) was 1450 nM and the TGI (SK-MEL-5 melanoma) was 2830 nM. It also gave a GI50 (SK-OV-3 ovarian) of 4670 nM, a TGI (SK-OV-3 ovarian) of 16100 nM and a GI50 (SN12C renal) of 1460 nM. The TGI (SN12C renal) was 4530 nM, the GI50 (SNB-19 CNS) was 3550 nM and the TGI (SNB-19 CNS) was 15100 nM. The GI50 (SNB-75 CNS) was 1190 nM, the TGI (SNB-75 CNS) was 7570 nM and the GI50 (SR leukemia) was 380 nM. It also gave a TGI (SR leukemia) of 10500 nM, a GI50 (SW-620 colon) of 579 nM and a TGI (SW-620 colon) of 2120 nM. It also gave a GI50 (T-47D breast) of 1040 nM, a TGI (T-47D breast) of 2990 nM and a GI50 (TK-10 renal) of 1690 nM. The TGI (TK-10 renal) was 3120 nM, the GI50 (U251 CNS) was 1580 nM and the TGI (U251 CNS) was 3700 nM. For the same compound, the GI50 (UACC-257 melanoma) was 1140 nM, the TGI (UACC-257 melanoma) was 2590 nM and the GI50 (UACC-62 melanoma) was 1140 nM. For the same compound, the TGI (UACC-62 melanoma) was 2880 nM, the GI50 (UO-31 renal) was 1040 nM and the TGI (UO-31 renal) was 2380 nM.
